The source of these data is US9233989B2, “Sila analogs of oxazolidinone derivatives and synthesis thereof” (Council of Scientific & Industrial Research, priority 2011, dated 2016).

For this test, the system named is Mycobacterium tuberculosis H37Rv. Nature of the test: Anti-TB activity, colorimetric resazurin microtiter assay. The conditions noted are these: read-out: MIC, Minimum Inhibitory Concentration (90%). It is filed as cell-based. (In general: Alamar Blue is a resazurin reagent that responds to reducing activity.)
The mark [1] stands for this setting: Mycobacterium tuberculosis, H37RV.

In brackets after ≈: the same amount, converted by molar mass. Read-outs that look alike come from different tables or passages of the source. Where only a bound is given, the exact number is not on record here.

Consider `CO[C@H]1/C=C/O[C@@]2(C)Oc3c(C)c(O)c4c(O)c(c(/C=N/N5CCN(C)CC5)c(O)c4c3C2=O)NC(=O)/C(C)=C\C=C\[C@H](C)[C@H](O)[C@@H](C)[C@@H](O)[C@@H](C)[C@H](OC(C)=O)[C@@H]1C` [Rifampicin, reference compound], for which the MIC (inhibition of Mycobacterium tuberculosis H37Rv growth, 7H9-OADC media, 37° C., visual readout) came out at 0.3 µg/mL (≈ 0.365 µM).

For the compound `CC(=O)NC[C@H]1CN(c2cc(F)c(N3CC[Si](C)(c4ccccc4)CC3)c(F)c2)C(=O)O1` [NDS-10068, (S)—N-((3-(3,5-difluoro-4-(4-methyl-4-phenyl-1,4-azasilinan-1-yl)phenyl)-2-oxooxazolidin-5-yl)methyl)acetamide], the MIC under setting [1] was greater than 100 µg/mL.

As to `CCC(=O)NC[C@H]1CN(c2cc(F)c(N3CC[Si](C)(c4ccccc4)CC3)c(F)c2)C(=O)O1` [NDS-10069, (S)—N-((3-(3,5-difluoro-4-(4-methyl-4-phenyl-1,4-azasilinan-1-yl)phenyl)-2-oxooxazolidin-5-yl)methyl)propionamide], under setting [1], the MIC was found to be 50 µg/mL (≈ 106 µM).

For `COC(=S)NC[C@H]1CN(c2cc(F)c(N3CC[Si](C)(C)CC3)c(F)c2)C(=O)O1` [NDS-10055, (S)—O-methyl(3-(4-(4,4-dimethyl-1,4-azasilinan-1-yl)-3,5-difluorophenyl)-2-oxooxazolidin-5-yl)methylcarbamothioate], under setting [1], the MIC is greater than 100 µg/mL.
